Consider eleven compounds from patent US12054461B2, “Sulfonylurea derivatives and uses thereof” (NodThera Limited, priority 2019, dated 2024).

As a reminder, the IC50 is the concentration at which inhibition is half-maximal.

Test [1] relates to IL-1β release upon NLRP3 activation in peripheral blood mononuclear cells (PBMC). The experiment in a line: PBMC IC50 determination assay. The test is classed as cell-based. As to conditions: sodium salts tested, LPS 1 μg/ml 3 h, compound 30 min, ATP 5 mM 1 h, IL-1β by HTRF. The method, then:
The compounds of the present disclosure were tested for their inhibitory activity against IL-1β release upon NLRP3 activation in peripheral blood mononuclear cells (PBMC).
PBMC were isolated from buffy coats by density gradient centrifugation on Histopaque-1077 (Sigma, cat no. 10771). Isolated cells were seeded into the wells (280,000 cells/well) of a 96-well plate and incubated for 3 h with lipopolysaccharide (LPS, 1 μg/ml diluted 1000× from a 1 mg/ml stock solution). The compounds of the present disclosure were added (a single compound per well) and the cells were incubated for 30 min. Next, the cells were stimulated with ATP (5 mM final concentration diluted 20× from a 100 mM stock solution) for 1 h and the cell culture media from the wells were collected for further analysis.
The release of IL-1β into the media was determined by quantitative detection of IL-1β in the media using HTRF®, CisBio cat. No. 62HIL1BPEH. Briefly, cell culture supernatant were dispensed directly into the assay plate containing antibodies labelled with the HTRF® donor and acceptor. A microplate spectrophotometer (BMG) was used to detect signals at 655 nm and 620 nm. The detection range of IL-1β HTRF® was 39-6500 pg/ml.
(In general: TR-FRET usually uses a lanthanide donor and a delayed reading to cut background.)

In test [2] the test system is IL-1β release upon NLRP3 activation in human whole blood. The test can be described thus: Whole blood (WB) assay. The format is cell-based. Conditions: sodium salts tested, LPS 1 μg/ml 3 h, compound 30 min, ATP 5 mM 1 h, IL-1β by HTRF. On the procedure: The compounds of the present disclosure were tested for their inhibitory activity against IL-1β release upon NLRP3 activation in human whole blood.
Whole blood was drawn from single healthy donors and treated with sodium heparin anticoagulant. Blood was diluted with cell culture media at a 9:5 ratio, seeded in a 96-well plate and incubated for 3 h with lipopolysaccharide (LPS, 1 μg/ml final concentration diluted 1000× from a 1 mg/ml stock solution). The compounds of the present disclosure were added (a single compound concentration per well) and the blood was incubated for 30 min. Next, the blood was stimulated with ATP (5 mM final concentration diluted 20× from a 100 mM stock solution) for 1 h and the cell culture media from the wells were collected for further analysis.
The release of IL-1β into the media was determined by quantitative detection of IL-1β in the media using HTRF®, CisBio cat. No. 62HIL1BPEH. Briefly, cell culture supernatant were diluted as appropriate to bring IL-1β levels within the HTRF® detection range (36-6500 pg/ml) and subsequently dispensed into the assay plate containing antibodies labelled with the HTRF® donor and acceptor. A microplate spectrophotometer (BMG) was used to detect signals at […] and 620 nm.

Where only a bound is given, the exact number is not on record here.

With `COCCN(c1cnn(C)c1)S(=O)(=O)NC(=O)Nc1c2c(cc3c1CCC3)CCC2` [Compound 1, 1-(1,2,3,5,6,7-Hexahydro-s-indacen-4-yl)-3-[(2-methoxyethyl)(1-methyl-1H-pyrazol-4-yl)sulfamoyl]urea], the results for the IC50 in test [1] and in test [2] were under 100 nM and 1000 to 3000 nM, respectively.

Turning to `COCC(COC)N(c1cnn(C)c1)S(=O)(=O)NC(=O)Nc1c2c(cc3c1CCC3)CCC2` [Compound 2, 3-[(1,3-Dimethoxypropan-2-yl)(1-methyl-1H-pyrazol-4-yl)sulfamoyl]-1-(1,2,3,5,6,7-hexahydro-s-indacen-4-yl)urea], the values for the IC50 in test [1] and in test [2] were 100 to 500 nM and 1000 to 3000 nM, respectively.

`Cn1cc(N(CC(C)(C)O)S(=O)(=O)NC(=O)Nc2c3c(cc4c2CCC4)CCC3)cn1` [Compound 3, 1-(1,2,3,5,6,7-Hexahydro-s-indacen-4-yl)-3-[(2-hydroxy-2-methylpropyl)(1-methyl-1H-pyrazol-4-yl)sulfamoyl]urea]: the IC50 in test [1] is 100 to 500 nM; in test [2], 1000 to 3000 nM.

For `Cn1cc(N(CCC(C)(C)O)S(=O)(=O)NC(=O)Nc2c3c(cc4c2CCC4)CCC3)cn1` [Compound 4, 1-(1,2,3,5,6,7-Hexahydro-s-indacen-4-yl)-3-[(3-hydroxy-3-methylbutyl)(1-methyl-1H-pyrazol-4-yl)sulfamoyl]urea], the results for the IC50 in test [1] and in test [2] were under 100 nM and 1000 to 3000 nM, respectively.

For `CN(C)C1CCC(N(c2cnn(C)c2)S(=O)(=O)NC(=O)Nc2c3c(cc4c2CCC4)CCC3)C1` (stereo not shown) [Compound 5, 1-{[3-(Dimethylamino)cyclopentyl](1-methyl-1H-pyrazol-4-yl)sulfamoyl}-3-(1,2,3,5,6,7-hexahydro-s-indacen-4-yl)urea], the IC50 is 100 to 500 nM in test [1] and 3000 to 10000 nM in test [2].

As to `CN(C)C1CC(N(c2cnn(C)c2)S(=O)(=O)NC(=O)Nc2c3c(cc4c2CCC4)CCC3)C1` (stereo not shown) [Compound 6, 3-{[3-(Dimethylamino)cyclobutyl](1-methyl-1H-pyrazol-4-yl)sulfamoyl}-1-(1,2,3,5,6,7-hexahydro-s-indacen-4-yl)urea], the IC50 in test [1] was under 100 nM; in test [2] it was 1000 to 3000 nM.

As for `COCCCN(c1cnn(C)c1)S(=O)(=O)NC(=O)Nc1c2c(cc3c1CCC3)CCC2` [Compound 7, 1-(1,2,3,5,6,7-Hexahydro-s-indacen-4-yl)-3-[(3-methoxypropyl)(1-methyl-1H-pyrazol-4-yl)sulfamoyl]urea], the IC50 in test [1] was in the range of 100 to 500 nM; in test [2], 3000 to 10000 nM.

Turning to `CN(C)CCN(c1cnn(C)c1)S(=O)(=O)NC(=O)Nc1c2c(cc3c1CCC3)CCC2` [Compound 8, 3-{[2-(Dimethylamino)ethyl](1-methyl-1H-pyrazol-4-yl)sulfamoyl}-1-(1,2,3,5,6,7-hexahydro-s-indacen-4-yl)urea], the figures for the IC50 in test [1] and in test [2] were under 100 nM and under 1000 nM, respectively.

For `CC(C)n1cc(N(CCN(C)C)S(=O)(=O)NC(=O)Nc2c3c(cc4c2CCC4)CCC3)cn1` [Compound 9, 1-{[2-(Dimethylamino)ethyl][1-(propan-2-yl)-1H-pyrazol-4-yl]sulfamoyl}-3-(1,2,3,5,6,7-hexahydro-s-indacen-4-yl)urea], the IC50 was under 100 nM in test [1] and under 1000 nM in test [2].

Take `CN(C)CCCN(c1cnn(C)c1)S(=O)(=O)NC(=O)Nc1c2c(cc3c1CCC3)CCC2` [Compound 10, 3-{[3-(Dimethylamino)propyl](1-methyl-1H-pyrazol-4-yl)sulfamoyl}-1-(1,2,3,5,6,7-hexahydro-s-indacen-4-yl)urea]: the IC50 was in the range of 100 to 500 nM in test [1] and 10000 to 20000 nM in test [2].

As to `CN(CCN(c1cnn(C)c1)S(=O)(=O)NC(=O)Nc1c2c(cc3c1CCC3)CCC2)C1COC1` [Compound 11, 1-(1,2,3,5,6,7-Hexahydro-s-indacen-4-yl)-3-({2-[methyl(oxetan-3-yl)amino]-ethyl}(1-methyl-1H-pyrazol-4-yl)sulfamoyl)urea], the results for the IC50 in test [1] and in test [2] were under 100 nM and 1000 to 3000 nM, respectively.
